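Cells were grown in 96-well plates and exposed to each compound for 48 hours at five concentrations; endpoints were interpolated linearly between bracketing concentrations, or set to the highest concentration if not reached. TGI denotes the concentration required for complete inhibition of growth.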 Some results are limits rather than exact numbers.

This passage reports TGI results from PubChem BioAssay (NCI).

What all share (assay): NCI-60 cell line screen, 48 h
Assay [1] concerns HS 578T breast.
Assay [2] concerns LOX IMVI melanoma.
The subject of assay [3] is MALME-3M melanoma.
Assay [4] concerns NCI-H226 lung.
The subject of assay [5] is SK-MEL-28 melanoma.
Assay [6] has as its system SN12C renal.
The subject of assay [7] is SR leukemia.
For assay [8], the system named is T-47D breast.
For assay [9], the system named is UACC-62 melanoma.
The test system of assay [10] is UO-31 renal.

For the compound `CN(C)CCn1c(=O)c2ccc(NCCN3CCNCC3)c3c(=O)c4ccccc4n(c1=O)c23`, the TGI in assay [1] came out at 25.9 µM; in [2], 11.9 µM; in [3], 17 µM; in assay [4] it was 15.2 µM; in assay [5] it was 25.5 µM; in assay [6], 14.6 µM. For the same compound, the TGI was 0.322 µM in [7], 28.9 µM in assay [8], 15.8 µM in [9] and 17.9 µM in assay [10].
`O=c1ccn(COC(COCc2ccccc2)COCc2ccccc2)c(=O)[nH]1`: the TGI in assay [1], in assay [2], in assay [3], in assay [4], in assay [5] and in [6] was greater than 100 µM throughout. Moreover, the TGI in assay [7], in assay [8], in assay [9] and in assay [10] was greater than 100 µM each time.
Take `O=C1CSC(c2ccccc2[N+](=O)[O-])N1c1ccc(-c2ccc(-n3c(-c4ccccc4)nc4ccccc4c3=O)cc2)cc1` (stereo not given): the TGI in assay [1], in assay [2], in assay [3], in assay [4], in assay [5] and in assay [6] was greater than 100 µM each time. For the same compound, the TGI in assay [7], in assay [8], in assay [9] and in assay [10] was greater than 100 µM in each case.
Take `COC1CN(C)C(=Nc2cccc3ccccc23)S1` (stereo not given): the TGI in [1], in [2], in [3], in [5], in assay [6] and in assay [7] was greater than 10 µM in each case. Moreover, the TGI in [8] and in assay [9] was greater than 10 µM in each case.
On to `CC[C@@]1(C)CCC2c3ccc(O)cc3CC[C@H]2C1C` (stereo not given in full), for which the TGI in assay [1] was 35.5 µM; in [2], 31.9 µM; in assay [3] it was 30.5 µM; in assay [5] it was 32 µM; in assay [6], 34.3 µM; in assay [7], 31.6 µM. For the same compound, the TGI in [8] is 39.3 µM; in assay [9], 28.4 µM; in assay [10], 30.4 µM.
For `NCCCC[C@H](N)C(=O)Nc1ccc(-c2nc3ccccc3s2)cc1`, the TGI in assay [1] was 47.6 µM; in assay [2] it was 72 µM; in assay [3], 34.9 µM; in assay [4], 71.1 µM; in [5] it was 33.8 µM; in assay [6], 74.3 µM. The TGI in assay [7] was 36.2 µM; in assay [8], greater than 100 µM; in assay [9], 59.7 µM; in assay [10] it was 26 µM.
Consider `CCC(=O)Nc1ccc(NC(C#N)c2cccc(Oc3ccccc3)c2)cc1` (stereo not given), for which the TGI in assay [1] was greater than 100 µM; in assay [2], 47 µM; in assay [3], 94.2 µM; in [4], 89.3 µM; in assay [5], greater than 100 µM; in [6], greater than 100 µM. Besides, the TGI in assay [7] was 55 µM; in [8] it was greater than 100 µM; in [9], greater than 100 µM; in assay [10], greater than 100 µM.
For the compound `COc1ccc(CCCNC(=O)c2cc(OC)c(OC)cc2CCO)cc1OC`, the TGI in assay [1], in assay [2], in [4], in assay [5], in assay [6] and in assay [7] was greater than 100 µM throughout. Moreover, the TGI in assay [8], in [9] and in [10] was greater than 100 µM each time.
On to `C=CCN(C(=O)OC(C)(C)C)[C@H](C)C(=O)N[C@@H](C)C(=O)OC`, for which the TGI in [1], in [2], in [3], in [4], in [5] and in assay [6] was greater than 100 µM each time. Besides, the TGI in assay [7], in [8], in [9] and in assay [10] was greater than 100 µM each time.
For `COC(=O)C1(C#N)C(C)(C)N=C(c2ccccc2)C12CCCCC2` (stereo not given), the TGI in assay [1], in [2], in assay [3], in [5], in [6] and in assay [7] was greater than 100 µM throughout. Besides, the TGI in assay [8], in [9] and in assay [10] was greater than 100 µM throughout.
`CC1(C)Cc2nc3c(cc2C(=O)C1C=N/C(C#N)=C(\N)C#N)C(=O)C(C=N/C(C#N)=C(\N)C#N)C(C)(C)C3` (stereo not given): the TGI in assay [1] was 3.32 µM; in assay [2], 5.7 µM; in assay [3], 2.84 µM; in [4], 12.7 µM; in assay [5] it was 4.58 µM; in assay [6] it was 5.23 µM. The TGI was greater than 100 µM in [7], 4.3 µM in assay [8], 3.56 µM in assay [9] and 3.51 µM in assay [10].
Take `O=C(O)CCSCc1ccccc1`: the TGI in [1], in [2], in assay [3], in assay [4], in assay [5] and in assay [6] was greater than 100 µM each time. Further, the TGI in [8], in assay [9] and in assay [10] was greater than 100 µM each time.
In the case of `OC(c1ccc(C(F)(F)F)cc1)C(F)(F)c1nc2ccccc2o1` (stereo not given), the TGI in assay [1], in assay [2], in assay [4], in assay [5], in [7] and in [8] was greater than 100 µM throughout. In addition, the TGI in assay [9] and in assay [10] was greater than 100 µM in each case.
For the compound `O=[N+]([O-])C(=C(N1CCOCC1)N1CCOCC1)/C(Cl)=C(\Cl)Br`, the TGI in assay [1] is greater than 100 µM; in [2] it was 41.1 µM; in assay [3], 30.5 µM; in assay [4], 60.5 µM; in assay [5] it was 33.8 µM; in assay [6] it was 31.7 µM. The values for the TGI in [7], in assay [8] and in assay [10] were 37.1 µM, 32.1 µM and 43.4 µM, respectively.
With `O=C1c2ccccc2-c2nnc3c(c21)-c1ccccc1C3`, the TGI in assay [1], in [3], in assay [4], in [6], in assay [7] and in [8] was greater than 100 µM throughout. For the same compound, the TGI in [9] and in assay [10] was greater than 100 µM throughout.
For the compound `O=C1C(=O)N(c2cccc(C(F)(F)F)c2)C(=S)N1c1ccccc1`, the TGI is greater than 100 µM in [1]; greater than 100 µM in [3]; 97.5 µM in [4]; 88.8 µM in [5]; greater than 100 µM in assay [6]; greater than 100 µM in assay [7]. Moreover, the TGI is greater than 100 µM in [8], 31.3 µM in assay [9] and 86.5 µM in assay [10].
`CC(=O)O[C@H]1CC[C@@]2(C)C(=CC[C@@H]3[C@@H]2CC[C@]2(C)c4c(C)nn(-c5ccccc5)c4C[C@@H]32)C1`: the TGI in assay [1] is 67.2 µM; in assay [2], 27.6 µM; in [4] it was 75.3 µM; in assay [5], greater than 100 µM; in assay [6], greater than 100 µM; in assay [7], 65 µM. In addition, the figures for the TGI in assay [8], in assay [9] and in assay [10] were greater than 100 µM, 39.3 µM and 47.3 µM, respectively.
Consider `CS(=O)(=O)c1ccc(N=C/C=C/Nc2ccc(S(C)(=O)=O)cc2)cc1`, for which the TGI in [1], in assay [3], in [4], in [5], in [6] and in [7] was greater than 100 µM in each case. The TGI in assay [8], in assay [9] and in [10] was greater than 100 µM each time.
In the case of `C/C(CC(O)(/C=N/O)c1ccccc1)=N/O` (stereo not given), the TGI in assay [1], in assay [2], in assay [3], in assay [4], in assay [5] and in [6] was greater than 100 µM throughout. In addition, the TGI in assay [7], in assay [8] and in [10] was greater than 100 µM throughout.
With `CC(C)[C@H](NC(=O)[C@H](N)Cc1ccc(N(CCCl)CCCl)cc1)C(=O)O`, the TGI in assay [1], in [2], in [3], in [4], in assay [5] and in [6] was greater than 100 µM throughout. The TGI in assay [8], in assay [9] and in assay [10] was greater than 100 µM throughout.
For the compound `O=c1[nH]nc(Cc2c[nH]c3ccccc23)o1`, the TGI in assay [1], in [2], in assay [3], in assay [4], in [5] and in [6] was greater than 100 µM each time. For the same compound, the TGI in assay [8], in [9] and in assay [10] was greater than 100 µM each time.
As for `Cn1c(=O)c2c(nc3n2CCCC(=O)N3CC(O)CCl)n(C)c1=O` (stereo not given), the TGI in [1], in assay [2], in [4], in assay [5], in assay [6] and in assay [7] was greater than 100 µM in each case. For the same compound, the TGI in assay [8], in assay [9] and in [10] was greater than 100 µM each time.
As to `NC(=O)NCCCC(NC(=O)OCCCCCCn1ccc(=O)[nH]c1=O)C(=O)O` (stereo not given), the TGI in [1], in assay [2], in assay [4], in [5], in assay [6] and in assay [7] was greater than 100 µM throughout. The TGI in [8], in assay [9] and in [10] was greater than 100 µM in each case.
As to `COC1CC(COCc2ccccc2)CC(OC)O1` (stereo not given), the TGI in assay [1], in [2], in assay [4], in assay [6], in assay [7] and in assay [8] was greater than 100 µM in each case. For the same compound, the TGI in assay [9] and in [10] was greater than 100 µM each time.
As to `O=c1c2cc3c(=O)n4c(cc(-c5ccccc5)c5cc(Cl)ccc54)nc3cc2nc2cc(-c3ccccc3)c3cc(Cl)ccc3n12`, the TGI in assay [1], in assay [2], in [4], in assay [5], in assay [6] and in [7] was greater than 100 µM throughout. For the same compound, the TGI in [8], in assay [9] and in assay [10] was greater than 100 µM throughout.
For the compound `COc1ccc(/C=C2\CCS(=O)(=O)c3ccccc3C2=O)cc1`, the TGI in assay [1] worked out at 82.8 µM; in assay [2], 40.4 µM; in [4], 62.8 µM; in [5] it was 72 µM; in assay [6], 77.3 µM; in assay [7] it was 40.5 µM. For the same compound, the TGI in assay [8] is 74.3 µM; in [9] it was 42.4 µM; in assay [10], 38 µM.
`CC(C)C(=O)Nc1cc(C(F)(F)F)ccc1[N+](=O)[O-]`: the TGI in assay [1], in assay [2], in assay [3], in [4], in [5] and in assay [6] was greater than 100 µM in each case. For the same compound, the TGI in assay [8], in assay [9] and in [10] was greater than 100 µM in each case.
For `COC(O)C(=O)c1ccc2c(c1)CC1(C2)Cc2cc3c(cc2C1=O)CCC3` (stereo not given), the TGI is 60.7 µM in assay [1]; 10.1 µM in assay [2]; 36.1 µM in assay [3]; 43.6 µM in assay [4]; 29.6 µM in assay [5]; 29.6 µM in [6]. For the same compound, the TGI in assay [8] was determined as 48.1 µM; in assay [9], 34 µM; in [10], 30.5 µM.
